The NIST ThermoML archive (doi:10.1021/je900596d)
± gives the expanded uncertainty stated by the source.

Settings: 353.12 K, Fluid (supercritical or subcritical phases), Vibrating tube method

FC(F)=C(F)C(F)(F)F [hexafluoropropene]
Settings	mass density [kg/m3]
251.4 kPa	13.222 ± 0.037
262.8 kPa	13.844 ± 0.037
272.6 kPa	14.383 ± 0.038
303.9 kPa	16.11 ± 0.039
313 kPa	16.554 ± 0.039
322.1 kPa	17.107 ± 0.04
330.9 kPa	17.558 ± 0.04
340 kPa	18.069 ± 0.041
349.1 kPa	18.584 ± 0.041
358.7 kPa	19.177 ± 0.042
369.1 kPa	19.754 ± 0.042
379.1 kPa	20.272 ± 0.043
389.1 kPa	20.831 ± 0.043
398.8 kPa	21.42 ± 0.044
402.9 kPa	21.597 ± 0.044
407.6 kPa	21.905 ± 0.044
413.1 kPa	22.161 ± 0.045
418.2 kPa	22.524 ± 0.045
427.2 kPa	23.019 ± 0.045
456.1 kPa	24.636 ± 0.047
465.8 kPa	25.243 ± 0.048
475.9 kPa	25.82 ± 0.05
485.6 kPa	26.38 ± 0.05
494.8 kPa	26.85 ± 0.05
499.7 kPa	27.22 ± 0.05
504.9 kPa	27.48 ± 0.05
509.8 kPa	27.78 ± 0.05
514.2 kPa	28 ± 0.05
524.1 kPa	28.5 ± 0.05
533.5 kPa	29.18 ± 0.05
538.4 kPa	29.45 ± 0.05
545.1 kPa	30 ± 0.05
567 kPa	31.29 ± 0.05
590.2 kPa	32.66 ± 0.06
613.6 kPa	34.14 ± 0.06
636.8 kPa	35.5 ± 0.06
660.1 kPa	36.92 ± 0.06
683.4 kPa	38.37 ± 0.06
706.6 kPa	39.74 ± 0.06
729.7 kPa	41.24 ± 0.07
752.5 kPa	42.62 ± 0.07
775.3 kPa	44.06 ± 0.07
796.9 kPa	45.46 ± 0.07
816.7 kPa	46.73 ± 0.07
836 kPa	47.99 ± 0.07
854.6 kPa	49.09 ± 0.07
872.3 kPa	50.27 ± 0.08
890.1 kPa	51.44 ± 0.08
907.5 kPa	52.57 ± 0.08
924.8 kPa	53.65 ± 0.08
942.1 kPa	54.86 ± 0.08
975.7 kPa	57.1 ± 0.09
992.2 kPa	58.29 ± 0.09
1023.7 kPa	60.42 ± 0.09
1038.9 kPa	61.48 ± 0.09
1054.5 kPa	62.56 ± 0.09
1070 kPa	63.66 ± 0.09
1085.8 kPa	64.72 ± 0.09
1101.6 kPa	65.79 ± 0.1
1116.8 kPa	66.89 ± 0.1
1131.5 kPa	67.98 ± 0.1
1146.8 kPa	69 ± 0.1
1161.5 kPa	70.08 ± 0.1
1205.5 kPa	73.34 ± 0.11
1219.6 kPa	74.41 ± 0.11
1247.6 kPa	76.44 ± 0.11
1261.7 kPa	77.55 ± 0.11
1275.7 kPa	78.61 ± 0.11
1303.4 kPa	80.62 ± 0.12
1330.3 kPa	82.8 ± 0.12
1356.9 kPa	84.86 ± 0.12
1383.3 kPa	86.96 ± 0.13
1408.9 kPa	88.93 ± 0.13
1434.2 kPa	91.01 ± 0.13
1459.3 kPa	93.02 ± 0.14
1483.9 kPa	95.18 ± 0.14
1508 kPa	97.12 ± 0.14
1531.3 kPa	99.1 ± 0.15
1554.6 kPa	101.06 ± 0.15
1577.1 kPa	102.97 ± 0.15
1599.7 kPa	105.06 ± 0.16
1621.5 kPa	106.97 ± 0.16
1643.3 kPa	108.91 ± 0.16
1664 kPa	110.78 ± 0.17
1684.8 kPa	112.72 ± 0.17
1705.1 kPa	114.65 ± 0.17
1725.3 kPa	116.53 ± 0.17
1745.4 kPa	118.38 ± 0.18
1764.4 kPa	120.27 ± 0.18
1783 kPa	122.06 ± 0.18
1801.8 kPa	123.93 ± 0.19
1819.8 kPa	125.68 ± 0.19
1837.5 kPa	127.52 ± 0.19
1854.8 kPa	129.26 ± 0.2
1871.7 kPa	131.01 ± 0.2
1887.6 kPa	132.69 ± 0.21
1901.9 kPa	134.3 ± 0.21
1921.8 kPa	136.34 ± 0.21
1936 kPa	137.88 ± 0.21
1955.9 kPa	140.04 ± 0.22
1970.5 kPa	141.59 ± 0.22
1990.1 kPa	143.83 ± 0.23
2027.5 kPa	148.08 ± 0.23
2047 kPa	150.4 ± 0.24
2061 kPa	152.1 ± 0.25
2079.9 kPa	154.31 ± 0.25
2102.5 kPa	157.14 ± 0.25
2119.5 kPa	159.22 ± 0.26
2136.1 kPa	161.36 ± 0.27
2152.9 kPa	163.58 ± 0.27
2175.2 kPa	166.51 ± 0.29
2194.7 kPa	169.1 ± 0.29
2217.5 kPa	172.27 ± 0.3
2237.1 kPa	175.05 ± 0.31
2258.4 kPa	178.08 ± 0.32
2276.1 kPa	180.72 ± 0.31
2293.5 kPa	183.23 ± 0.32
2310.9 kPa	185.85 ± 0.34
2329.3 kPa	188.76 ± 0.36
2343.8 kPa	191.1 ± 0.34
2361 kPa	193.93 ± 0.35
2378.6 kPa	196.85 ± 0.37
2393.5 kPa	199.32 ± 0.38
2410.2 kPa	202.31 ± 0.42
2428.4 kPa	205.51 ± 0.43
2442.4 kPa	208.12 ± 0.4
2463 kPa	211.98 ± 0.44
2479.5 kPa	215.15 ± 0.46
2502.3 kPa	219.78 ± 0.55
2520.3 kPa	223.6 ± 0.48
2540.4 kPa	228.04 ± 0.47
2560 kPa	232.39 ± 0.5
2575.6 kPa	236.13 ± 0.53
